Assay results published in ChEMBL document CHEMBL5537196, “Discovery of KIN-3248, An Irreversible, Next Generation FGFR Inhibitor for the Treatment of Advanced Tumors Harboring FGFR2 and/or FGFR3 Gene Alterations” (J Med Chem, 2024).

Assays:
SNU-16 = experiment: Antiproliferative activity against human SNU-16 cells assessed as inhibition of cell growth incubated for 5 days by Cell-titer glo assay; conditions: SNU-16, 120 h
CC-LP-1 [1] = experiment: Antiproliferative activity against human CC-LP-1 cells assessed as inhibition of cell growth incubated for 3 days by Cell-titer glo assay; conditions: CC-LP-1, 72 h
CC-LP-1 [2] = experiment: Antiproliferative activity against human CC-LP-1 cells expressing FGFR2 V565F mutant assessed as inhibition of cell growth incubated for 3 days by Cell-titer glo assay; conditions: CC-LP-1, 72 h
CC-LP-1 [3] = experiment: Antiproliferative activity against human CC-LP-1 cells expressing FGFR2 N550K mutant assessed as inhibition of cell growth incubated for 3 days by Cell-titer glo assay; conditions: CC-LP-1, 72 h
[4] = Antiproliferative activity against human ICC13-7 cells assessed as inhibition of cell growth incubated for 3 days by Cell-titer glo assay; conditions: ICC13-7, 72 h
[5] = Antiproliferative activity against human ICC13-7 cells expressing FGFR2 V565F mutant assessed as inhibition of cell growth incubated for 10 days by Cell-titer glo assay; conditions: ICC13-7, 240 h
[6] = Antiproliferative activity against human ICC13-7 cells expressing FGFR2 N550K mutant assessed as inhibition of cell growth incubated for 10 days by Cell-titer glo assay; conditions: ICC13-7, 240 h
RT-112 [7] = experiment: Antiproliferative activity against human RT-112 cells assessed as inhibition of cell growth incubated for 5 days by Cell-titer glo assay; conditions: RT-112, 120 h
RT-112 [8] = experiment: Antiproliferative activity against human RT-112 cells expressing FGFR3 assessed as inhibition of cell growth incubated for 5 days by Cell-titer glo assay; conditions: RT-112, 120 h
RT-112 [9] = experiment: Antiproliferative activity against human RT-112 cells expressing FGFR3 V555M mutant assessed as inhibition of cell growth incubated for 5 days by Cell-titer glo assay; conditions: RT-112, 120 h
RT-112 [10] = experiment: Antiproliferative activity against human RT-112 cells expressing FGFR3 N540K mutant assessed as inhibition of cell growth incubated for 5 days by Cell-titer glo assay; conditions: RT-112, 120 h
RT-112 [11] = experiment: Antiproliferative activity against human RT-112 cells expressing FGFR3 K650M mutant assessed as inhibition of cell growth incubated for 5 days by Cell-titer glo assay; conditions: RT-112, 120 h
[12] = Half life in Sprague-Dawley rat at 5 mg/kg,iv administrated at 0.25 to 24 hrs by LC-MS/MS analysis; type: ADME, organism-based; conditions: in vivo, time 0.25-24 hrs
[13] = Total clearance in Sprague-Dawley rat at 5 mg/kg,iv administrated at 0.25 to 24 hrs by LC-MS/MS analysis; type: ADME, organism-based; conditions: in vivo, time 0.25-24 hrs
[14] = Cmax in Sprague-Dawley rat at 15 mg/kg,po administrated at 0.25 to 24 hrs by LC-MS/MS analysis; type: ADME, organism-based; conditions: in vivo, time 0.25-24 hrs
[15] = AUC (0 to 24 hrs) in Sprague-Dawley rat at 15 mg/kg,po administrated at 0.25 to 24 hrs by LC-MS/MS analysis; type: ADME, organism-based; conditions: in vivo, time 0.25-24 hrs
[16] = Oral bioavailability in Sprague-Dawley rat at 15 mg/kg administrated at 0.25 to 24 hrs by LC-MS/MS analysis; type: ADME, organism-based; conditions: in vivo, time 0.25-24 hrs
[17] = Half life in Beagle dog at 5 mg/kg,iv administrated at 0.25 to 24 hrs by LC-MS/MS analysis; type: ADME, organism-based, Canis lupus familiaris; conditions: in vivo, time 0.25-24 hrs
[18] = Total clearance in Beagle dog at 5 mg/kg,iv administrated at 0.25 to 24 hrs by LC-MS/MS analysis; type: ADME, organism-based, Canis lupus familiaris; conditions: in vivo, time 0.25-24 hrs
[19] = Cmax in Beagle dog at 10 mg/kg,po administrated at 0.25 to 24 hrs by LC-MS/MS analysis; type: ADME, organism-based, Canis lupus familiaris; conditions: in vivo, time 0.25-24 hrs
[20] = AUC (0 to 24 hrs) in Beagle dog at 10 mg/kg,po administrated at 0.25 to 24 hrs by LC-MS/MS analysis; type: ADME, organism-based, Canis lupus familiaris; conditions: in vivo, time 0.25-24 hrs
[21] = Oral bioavailability in Beagle dog at 10 mg/kg administrated at 0.25 to 24 hrs by LC-MS/MS analysis; type: ADME, organism-based, Canis lupus familiaris; conditions: in vivo, time 0.25-24 hrs
[22] = Intrinsic clearance in human liver microsomes; type: ADME, Microsome; conditions: read-out: CLH
[23] = Intrinsic clearance in human hepatocyte measured per 10^6 cells; type: ADME, cell-based; conditions: hepatocytes, read-out: CLH
[24] = Cmax in Beagle dog at 15 mg/kg,po administrated at 0.25 to 24 hrs by LC-MS/MS analysis; type: ADME, organism-based, Canis lupus familiaris; conditions: in vivo, time 0.25-24 hrs
[25] = AUC (0 to 24 hrs) in Beagle dog at 15 mg/kg,po administrated at 0.25 to 24 hrs by LC-MS/MS analysis; type: ADME, organism-based, Canis lupus familiaris; conditions: in vivo, time 0.25-24 hrs
[26] = Oral bioavailability in Beagle dog at 15 mg/kg administrated at 0.25 to 24 hrs by LC-MS/MS analysis; type: ADME, organism-based, Canis lupus familiaris; conditions: in vivo, time 0.25-24 hrs
CC-LP-1 [27] = experiment: Antiproliferative activity against human CC-LP-1 cells expressing FGFR2 N550H mutant assessed as inhibition of cell growth incubated for 3 days by Cell-titer glo assay; type: functional, cell-based; conditions: CC-LP-1, 72 h
[28] = Antitumor activity against patient derived STO357 PDX cells xenografted in mouse assessed as tumor growth inhibition at 6 mg/kg,po administrated once daily for 3 weeks relative to control; conditions: Homo sapiens, 504 h, read-out: TGI
[29] = Antitumor activity against patient derived STO357 PDX cells xenografted in mouse assessed as tumor growth inhibition at 1 mg/kg,po administrated once daily for 3 weeks relative to control; type: functional; conditions: Homo sapiens, 504 h, read-out: TGI

C=CC(=O)N1C[C@@H](n2nc(C#Cc3cc4ncn(C5CC5)c4cc3Cl)c(C(N)=O)c2NC)C[C@@H]1COC
IC50 (SNU-16): 6 nM | IC50 (CC-LP-1 [1]): 4.3 nM | IC50 (CC-LP-1 [2]): 1.8 nM | IC50 (CC-LP-1 [3]): 6.5 nM | IC50 [4]: 2.2 nM | IC50 [5]: 0.9 nM | IC50 [6]: 6.1 nM | IC50 (RT-112 [7]): 7.2 nM | IC50 (RT-112 [8]): 11.2 nM | IC50 (RT-112 [9]): 19.5 nM | IC50 (RT-112 [10]): 26.3 nM | IC50 (RT-112 [11]): 12.8 nM | half-life [12]: 6.17 h | clearance [13]: 26.8 mL/min/kg | Cmax [14]: 519 ng/mL | AUC(0-t) [15]: 1500 ng·h/mL | bioavailability [16]: 16.4% | half-life [17]: 4.94 h | clearance [18]: 44.4 mL/min/kg | Cmax [19]: 289 ng/mL | AUC(0-t) [20]: 498 ng·h/mL | bioavailability [21]: 13.1% | microsomal CLint [22]: 106 µL/min/mg | hepatocyte CLint [23]: 14.4 µL/min/1e6 cells

C=CC(=O)N1C[C@@H](n2nc(C#Cc3ccc4c(c3)ncn4C3CC3)c(C(N)=O)c2NC)C[C@@H]1COC
half-life [12]: 4.88 h | clearance [13]: 26.1 mL/min/kg | Cmax [14]: 1720 ng/mL | AUC(0-t) [15]: 3020 ng·h/mL | bioavailability [16]: 31.4% | half-life [17]: 6.46 h | clearance [18]: 31.1 mL/min/kg | Cmax [19]: 124 ng/mL | AUC(0-t) [20]: 312 ng·h/mL | bioavailability [21]: 4.6% | microsomal CLint [22]: 47.4 µL/min/mg | hepatocyte CLint [23]: 6.6 µL/min/1e6 cells

C=CC(=O)N1C[C@@H](n2nc(C#Cc3cc4ncn(C5CC5)c4cc3F)c(C(N)=O)c2NC)C[C@@H]1COC
IC50 (SNU-16): 4 nM | IC50 (CC-LP-1 [1]): 2.3 nM | IC50 (CC-LP-1 [2]): 1.5 nM | IC50 (CC-LP-1 [3]): 3.6 nM | IC50 [4]: 1.4 nM | IC50 [5]: 1.4 nM | IC50 [6]: 3.5 nM | half-life [12]: 8.85 h | clearance [13]: 25 mL/min/kg | Cmax [14]: 760 ng/mL | AUC(0-t) [15]: 2620 ng·h/mL | bioavailability [16]: 27% | half-life [17]: 11.4 h | clearance [18]: 31.8 mL/min/kg | Cmax [24]: 770 ng/mL | AUC(0-t) [25]: 1700 ng·h/mL | bioavailability [26]: 23.5% | microsomal CLint [22]: 97.1 µL/min/mg | hepatocyte CLint [23]: 12 µL/min/1e6 cells

COc1cc(OC)cc(N(CCNC(C)C)c2ccc3ncc(-c4cnn(C)c4)nc3c2)c1 [ERDAFITINIB]
IC50 (SNU-16): 2.7 nM | IC50 (CC-LP-1 [1]): 2.3 nM | IC50 (CC-LP-1 [2]): 1370 nM | IC50 (CC-LP-1 [27]): 10.8 nM | IC50 (CC-LP-1 [3]): 94.8 nM | IC50 [4]: 1.1 nM | IC50 [5]: > 2800 nM | IC50 [6]: 131 nM | IC50 (RT-112 [7]): 1.3 nM | IC50 (RT-112 [8]): 2.4 nM | IC50 (RT-112 [9]): 603 nM | IC50 (RT-112 [10]): 107 nM | IC50 (RT-112 [11]): 39 nM

C=CC(=O)N1CC[C@H](n2nc(C#Cc3cc(OC)cc(OC)c3)c3c(N)ncnc32)C1 [FUTIBATINIB]
IC50 (SNU-16): 4.7 nM | IC50 (CC-LP-1 [1]): 1.3 nM | IC50 (CC-LP-1 [2]): 105 nM | IC50 (CC-LP-1 [27]): 1.4 nM | IC50 (CC-LP-1 [3]): 5.5 nM | IC50 [4]: 1.8 nM | IC50 [5]: 143 nM | IC50 [6]: 13.8 nM | IC50 (RT-112 [7]): 6.7 nM | IC50 (RT-112 [8]): 19.6 nM | IC50 (RT-112 [9]): 390 nM | IC50 (RT-112 [10]): 73.4 nM | IC50 (RT-112 [11]): 74.3 nM | inhibition in vivo at 6 mg/kg [28]: 48%

CCN1CCN(c2ccc(Nc3cc(N(C)C(=O)Nc4c(Cl)c(OC)cc(OC)c4Cl)ncn3)cc2)CC1 [INFIGRATINIB]
IC50 (SNU-16): 12.4 nM | IC50 (CC-LP-1 [1]): 7.3 nM | IC50 (CC-LP-1 [2]): > 2280 nM | IC50 (CC-LP-1 [27]): 28.8 nM | IC50 (CC-LP-1 [3]): 432 nM | IC50 [4]: 7.6 nM | IC50 [5]: > 1890 nM | IC50 [6]: 352 nM | IC50 (RT-112 [7]): 6.2 nM | IC50 (RT-112 [8]): 10 nM | IC50 (RT-112 [9]): 352 nM | IC50 (RT-112 [10]): 777 nM | IC50 (RT-112 [11]): 218 nM

CCN1C(=O)N(c2c(F)c(OC)cc(OC)c2F)Cc2cnc3[nH]c(CN4CCOCC4)cc3c21 [PEMIGATINIB]
IC50 (SNU-16): 3.9 nM | IC50 (CC-LP-1 [1]): 3.6 nM | IC50 (CC-LP-1 [2]): 1630 nM | IC50 (CC-LP-1 [27]): 48.7 nM | IC50 (CC-LP-1 [3]): 493 nM | IC50 [4]: 2.6 nM | IC50 [5]: > 2350 nM | IC50 [6]: 416 nM | IC50 (RT-112 [7]): 3.3 nM | IC50 (RT-112 [8]): 6 nM | IC50 (RT-112 [9]): > 1150 nM | IC50 (RT-112 [10]): 1880 nM | IC50 (RT-112 [11]): 174 nM | inhibition in vivo at 1 mg/kg [29]: 57%
